Results published in EP1131337B1 (DABUR PHARMA LTD., priority 1998, dated 2000).
≈ marks a conversion by molar mass, not a printed value.

Legend:
human melanomas = settings: athymic mice carrying human melanomas; Nature Medicine 1995, WO 96/29068; cited from earlier work
[1] = tested on: P388 lymphocytic leukemia cells; settings: Choi et al., Planta Medica 1988; cited from earlier work
[2] = tested on: prostate cancer cells (DU 145); experiment: MTT cytotoxicity assay, prostate cancer; assay type: cell-based, human; settings: 72 hours
Method: (§1) After 72 hours, the assay was terminated and percent cyotoxicities calculated.

human leukemia (MOLT-4) = experiment: MTT cytotoxicity assay, leukemia; assay type: cell-based; settings: 72 hours
Method: as §1

[3] = tested on: lung cancer cells (L 132); experiment: MTT cytotoxicity assay, lung cancer; assay type: cell-based, human; settings: 72 hours
Method: as §1

[4] = tested on: colon cancer cells (HT29); experiment: MTT cytotoxicity assay, colon cancer; assay type: cell-based, human; settings: 72 hours
Method: as §1

[5] = tested on: ovarian cancer cells (PA-1); experiment: MTT cytotoxicity assay, ovarian cancer; assay type: cell-based, human; settings: 72 hours
Method: as §1

lymphoma cells (U937) = experiment: MTT cytotoxicity assay, lymphoma; assay type: cell-based, human; settings: 72 hours
Method: as §1

[6] = tested on: laryngeal cancer cells(HeP.2); experiment: MTT cytotoxicity assay, laryngeal cancer; assay type: cell-based, human; settings: 72 hours
Method: as §1

## C=C(C)[C@@H]1CC[C@]2(C(=O)O)CC[C@]3(C)[C@H](CC[C@@H]4[C@@]5(C)CC[C@H](O)C(C)(C)[C@@H]5CC[C@]43C)[C@@H]12 [betulinic acid]
Human melanomas
  toxicity: without toxicity

## C=C(C)[C@@H]1CC[C@]2(C(=O)O)CC[C@]3(C)[C@H](CC[C@@H]4[C@@]5(C)CC[C@H](OC(C)=O)C(C)(C)[C@@H]5CC[C@]43C)[C@@H]12 [betulinic acid 3-monoacetate]
[1]
  ED50: 10.5 µg/mL (≈ 21.1 µM)

## CC(C)C1CCC2(C(=O)O)CCC3(C)C(CCC4C5(C)CCC(=NOCc6ccc([N+](=O)[O-])cc6)C(C)(C)C5CCC43C)C12 (stereo not shown) [compound 1098]
[2]
  ED50 Prostate DU145: 1.5 µg/mL (≈ 2.47 µM)
Human leukemia (MOLT-4)
  ED50 Leukemia MOLT-4: 0.5 µg/mL (≈ 0.824 µM)
[3]
  ED50 Lung L132: 1.3 µg/mL (≈ 2.14 µM)
[4]
  ED50 Colon HT-29: 2.6 µg/mL (≈ 4.28 µM)
[5]
  ED50 Ovary PA-1: 0.9 µg/mL (≈ 1.48 µM)
Lymphoma cells (U937)
  ED50 Lymphoma 0 937: 0.4 µg/mL (≈ 0.659 µM)
[6]
  ED50 Larynx Hep.2: 1.0 µg/mL (≈ 1.65 µM)

## C=C(C)[C@@H]1CC[C@]2(C(=O)OC)CC[C@]3(C)[C@H](CC[C@@H]4[C@@]5(C)CC[C@H](O)C(C)(C)[C@@H]5CC[C@]43C)[C@@H]12 [betulinic acid methyl ester]
[1]
  ED50: 6.8 µg/mL (≈ 14.4 µM)
